This note sets out measurements from patent publication US20230097866A1, “BACTERIAL TOPOISOMERASE INHIBITORS DERIVED FROM ISOMANNIDE” (Ohio State Innovation Foundation, priority 2020, published 2023).

Converted amounts (≈) assume the structure as drawn. Read-outs that look alike come from different tables or passages of the source. Where only a bound is given, the exact number is not on record here.

Usually MIC stands for the smallest concentration in the dilution series that meets the test's criterion for growth inhibition. The inhibition is the relative decrease from the control value, in per cent.

For data set [1], the system named is USA300 isolate of MRSA. The experiment in a line: MIC, CLSI broth microdilution, USA300 MRSA. It is filed as cell-based. Particulars: Staphylococcus aureus; CLSI broth microdilution; ciprofloxacin-resistant MRSA; read-out: MIC USA300.
The test system of data set [2] is MRSADRL-3161. Description: MIC panel (Laboratory Specialists, Inc.), MRSA. It is filed as cell-based. Conditions: Staphylococcus aureus; Cmpd. 6; CLSI broth microdilution. On the technique in general: Broth dilution looks for growth in wells or tubes with falling amounts of substance.
For data set [3], the system named is Streptococcus pneumoniae LSI-4234. The experiment in a line: MIC panel (Laboratory Specialists, Inc.), S. pneumoniae LSI-4234. Format: cell-based. Particulars: LSI4234, Cmpd. 6, penicillin-susceptible strain.
The test system of data set [4] is Pseudomonas aeruginosa LSI-2946. Description: MIC panel (Laboratory Specialists, Inc.), P. aeruginosa. It is filed as cell-based. Conditions: LSI2946, Cmpd. 6, CLSI broth microdilution.
Data set [5] deals with T1, hERG Human Potassium Ion Channel (Homo sapiens, UniProt Q12809).
T1 construct: expressed in transfected cells
T1 sequence (Q12809 whole entry): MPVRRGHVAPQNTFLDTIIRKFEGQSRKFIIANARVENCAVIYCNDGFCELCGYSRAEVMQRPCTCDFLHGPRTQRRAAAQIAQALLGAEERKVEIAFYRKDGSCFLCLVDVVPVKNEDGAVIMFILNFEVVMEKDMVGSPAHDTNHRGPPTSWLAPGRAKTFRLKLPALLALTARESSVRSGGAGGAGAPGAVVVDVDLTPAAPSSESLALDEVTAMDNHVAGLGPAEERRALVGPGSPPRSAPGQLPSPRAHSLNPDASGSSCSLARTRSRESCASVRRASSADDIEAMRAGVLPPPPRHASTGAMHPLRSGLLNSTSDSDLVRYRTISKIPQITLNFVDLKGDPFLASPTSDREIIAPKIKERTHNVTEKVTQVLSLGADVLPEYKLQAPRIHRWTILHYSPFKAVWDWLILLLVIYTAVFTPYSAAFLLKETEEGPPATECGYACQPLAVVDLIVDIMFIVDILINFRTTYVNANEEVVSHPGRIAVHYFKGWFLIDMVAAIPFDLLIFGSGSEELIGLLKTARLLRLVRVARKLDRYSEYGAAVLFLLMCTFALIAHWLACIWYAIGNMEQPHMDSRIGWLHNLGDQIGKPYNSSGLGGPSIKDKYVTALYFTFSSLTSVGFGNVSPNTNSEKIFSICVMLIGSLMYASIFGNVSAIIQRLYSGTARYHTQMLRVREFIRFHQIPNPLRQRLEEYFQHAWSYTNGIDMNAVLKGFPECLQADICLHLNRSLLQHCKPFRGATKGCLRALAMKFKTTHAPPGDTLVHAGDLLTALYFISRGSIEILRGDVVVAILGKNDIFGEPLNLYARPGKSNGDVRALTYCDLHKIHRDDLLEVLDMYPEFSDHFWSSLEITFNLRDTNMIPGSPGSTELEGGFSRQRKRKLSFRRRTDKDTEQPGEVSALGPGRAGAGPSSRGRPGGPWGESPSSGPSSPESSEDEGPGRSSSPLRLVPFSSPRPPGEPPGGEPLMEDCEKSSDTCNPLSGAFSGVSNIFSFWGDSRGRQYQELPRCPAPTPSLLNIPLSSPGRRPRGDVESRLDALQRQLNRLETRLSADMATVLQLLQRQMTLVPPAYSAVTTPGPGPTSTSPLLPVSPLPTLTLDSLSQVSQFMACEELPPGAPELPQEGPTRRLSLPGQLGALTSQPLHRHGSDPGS
The experiment in a line: hERG QPatch CiPA assay. Format: cell-based. Particulars: mean, duplicate. The source says:
(§1) Early drug discovery programs commonly assess hERG inhibition as the only indicator of potential cardiovascular safety concerns. Researchers have recently recommended a more rigorous evaluation of multiple cardiac ion channels to provide a more comprehensive cardiovascular risk assessment (Fermini, B., et al., A New Perspective in the Field of Cardiac Safety Testing through the Comprehensive In Vitro Proarrhythmia Assay Paradigm. J. Biomolec. Screening 2016, 21, 1-11). Given the promising initial results for 6, further evaluation was undertaken (in duplicate) in a Comprehensive in vitro Proarrhythmia Assay (CiPA) eight assay panel run on the QPatch HT (Sophion, Denmark) automated patch clamp system at three concentrations (3, 30, and 100 μM). All data were filtered for seal quality, seal drop, and current amplitude. A stock solution of the test compound at 30 mM concentration was prepared in DMSO.
The parameters measured were the maximum tail current evoked on stepping to 40 mV and ramping back to −80 mV from the test pulse. The peak current amplitude was calculated before and after compound addition and the amount of block was assessed by dividing the Test compound current amplitude by the Control current amplitude. Control is the mean hERG current amplitude collected 15 seconds at the end of the control; Test Compound is the mean hERG current amplitude collected in the presence of test compound at each concentration. The positive control was E-4031.
Background: The hERG channel carries a current that helps repolarise heart muscle cells.

Data set [6] addresses T2, hKv4.3/KChIP2 (Homo sapiens, UniProt Q9UK17).
T2 construct: expressed in transfected cells
T2 sequence (Q9UK17 1-655): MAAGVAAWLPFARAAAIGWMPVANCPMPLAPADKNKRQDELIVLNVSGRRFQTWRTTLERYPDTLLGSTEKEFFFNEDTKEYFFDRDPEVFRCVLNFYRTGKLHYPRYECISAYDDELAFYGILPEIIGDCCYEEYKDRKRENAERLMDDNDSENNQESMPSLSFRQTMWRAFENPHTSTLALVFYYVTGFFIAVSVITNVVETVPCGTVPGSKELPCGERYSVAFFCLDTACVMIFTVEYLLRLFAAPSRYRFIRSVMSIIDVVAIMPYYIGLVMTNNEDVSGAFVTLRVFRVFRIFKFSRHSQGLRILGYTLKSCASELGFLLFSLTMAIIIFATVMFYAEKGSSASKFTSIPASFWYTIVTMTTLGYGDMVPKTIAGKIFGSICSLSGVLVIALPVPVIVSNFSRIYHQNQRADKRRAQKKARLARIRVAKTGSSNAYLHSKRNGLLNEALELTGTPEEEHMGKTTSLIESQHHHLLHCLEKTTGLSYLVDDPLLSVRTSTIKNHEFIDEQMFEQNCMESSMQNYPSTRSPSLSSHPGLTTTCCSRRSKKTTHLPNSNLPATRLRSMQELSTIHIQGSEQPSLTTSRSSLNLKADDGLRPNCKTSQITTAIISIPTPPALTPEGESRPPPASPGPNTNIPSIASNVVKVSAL
T2 sequence (Q9NS61 1-270 partner): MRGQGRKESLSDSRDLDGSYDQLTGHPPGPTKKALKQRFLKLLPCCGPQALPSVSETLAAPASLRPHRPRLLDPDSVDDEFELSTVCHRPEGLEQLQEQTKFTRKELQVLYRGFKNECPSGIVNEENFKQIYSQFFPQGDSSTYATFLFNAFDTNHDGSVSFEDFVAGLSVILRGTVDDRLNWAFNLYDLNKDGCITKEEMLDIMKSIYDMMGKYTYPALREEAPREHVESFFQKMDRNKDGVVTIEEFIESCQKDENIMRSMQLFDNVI
The experiment in a line: Kv4.3/KChIP2 QPatch CiPA assay. Format: cell-based. Conditions: mean, duplicate.
Source text: as §1
The parameters measured were the maximum outward current evoked on stepping to 40 mV from the test pulse. The peak current amplitude was calculated before and after compound addition and the amount of block was assessed by dividing the Test compound current amplitude by the Control current amplitude. Control is the mean hKv4.3/KChIP2 current amplitude collected 15 seconds at the end of the control; Test Compound is the mean hKv4.3/KChIP2 current amplitude peak and end collected in the presence of test compound at each concentration. The positive control was flecainide.
For orientation: The patch-clamp technique gives a direct electrical read-out from membranes.

The test system of data set [7] is HepaRG cells. Description: ATP viability cytotoxicity assay in HepaRG cells. It is filed as cell-based. Conditions: 24 hours. On the procedure:
The cytotoxicity of compound 6 was measured using an ATP viability assay in HepaRG cells, with a five-point concentration-response curve (Table 8).
HepaRG cells were plated in a collagen coated 96-well plate overnight and treated the next day with test compounds and controls for 24 hours. Tamoxifen was used as a positive control compound for cytotoxicity (25 μM). After 24 hours, the plate was equilibrated to room temperature for 30 minutes and Cell Titer-Glo Reagent was added. Luminescence was measured using an EnSpire multimode plate reader. Data were reported as % cytotoxi city compared to vehicle treated control.
Cytotoxicity was determined by calculating the percentage of vehicle control: […]

The target of data set [8] is T3, CYP2D6 (Homo sapiens, UniProt P10635).
T3 construct: incubated with human liver microsomes (mixed gender, pool of 50 donors, 0.1 mg/mL); from tissue; host or cells: human liver microsomes, pool of 50 donors
T3 sequence (P10635 whole entry): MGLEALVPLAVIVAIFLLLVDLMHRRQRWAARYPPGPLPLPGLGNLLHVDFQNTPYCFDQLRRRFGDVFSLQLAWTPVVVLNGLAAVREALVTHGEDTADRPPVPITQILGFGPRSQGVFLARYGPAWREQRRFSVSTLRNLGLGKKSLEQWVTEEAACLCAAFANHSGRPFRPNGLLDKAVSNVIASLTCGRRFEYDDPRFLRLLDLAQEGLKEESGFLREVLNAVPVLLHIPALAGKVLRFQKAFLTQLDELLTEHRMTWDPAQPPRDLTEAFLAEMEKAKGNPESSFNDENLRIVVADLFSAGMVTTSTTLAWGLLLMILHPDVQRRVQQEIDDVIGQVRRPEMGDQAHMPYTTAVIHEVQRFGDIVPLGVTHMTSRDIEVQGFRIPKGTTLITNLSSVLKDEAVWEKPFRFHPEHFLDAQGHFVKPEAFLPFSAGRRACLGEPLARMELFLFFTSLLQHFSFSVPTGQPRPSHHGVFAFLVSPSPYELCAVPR
Description: CYP450 inhibition in human liver microsomes, CYP2D6. Format: in vitro ADME. Conditions: 10 μM. On the procedure:
CYP450 inhibition assays was conducted using individual enzyme substrates and inhibitors instead of a cocktail to avoid interferences. CYP450 isoforms tested included the following: CYP1A2, CYP2B6, CYP2C8, CYP2C9, CYP2C19, CYP2D6, and CYP3A4. Each test compound was screened at a final concentration of 10 μM. Each test compound was incubated with human liver microsomes (mixed gender, pool of 50 donors, 0.1 mg/mL), CYP450-selective probe substrates, and co-factors (NADPH, MgCl2) in phosphate buffer (pH 7.4) for 10-30 min in a 96-well plate at 37° C. The reactions were stopped by transferring the reaction mixture to acetonitrile/methanol. Samples were mixed and centrifuged, and the supernatants analyzed by LC-MS/MS to quantify percent inhibition relative to vehicle control.

Setting [9] is: read-out: % Inhibition Kv4.3 (end current).
Where [10] appears, read: read-out: % Inhibition Kv4.3 (peak current).

As to `COc1ccc2ncc(F)c(CC[C@@]3(O)CO[C@@H]4[C@@H](NCc5cc6c(cn5)OCCO6)CO[C@@H]43)c2n1` [Compound 6, (3R, 3aS,6S,6aR)-6-(((2,3-dihydro-[1,4]dioxino[2,36-c]pyridin-7-yl)methyl)amnino)-3-(2-(3-fluoro-6-methoxy-1,5-naphthyridin-4-yl)ethyl)hexahydrofuro[3,2-b]furan-3-ol], the MIC is 2 µg/mL (≈ 4.01 µM) in data set [1], 1 µg/mL (≈ 2.01 µM) in data set [2], no more than 0.12 µg/mL in data set [3] and no more than 0.12 µg/mL in data set [4]. For the same compound, the “% Inhibition hERG (tail current)” value is recorded as −2.4% in data set [5] (3 μM), 11.3% in data set [5] (30 μM) and 39.0% in data set [5] (100 μM). Besides, the values for the inhibition at 3 µM in data set [6] (setting [9]) and in data set [6] (setting [10]) were -4.4% and 11%, respectively. Also, the figures for the inhibition at 30 µM in data set [6] (setting [9]) and in data set [6] (setting [10]) were -19.6% and 25.1%, respectively. Moreover, the inhibition at 100 µM amounted to 7.1% in data set [6] (setting [9]) and 43.6% in data set [6] (setting [10]). The “% Cytotoxicity” value in data set [7] (0.01 μM) turned out to be 6%; in data set [7] (0.1 μM) it was 4%; in data set [7] (1 μM), 9%; in data set [7] (10 μM), 8%. The CYP2D6 inhibition result in data set [8] was “Less than 50%”.
